Results taken from ChEMBL document CHEMBL1127571, “S-(N-aryl-N-hydroxycarbamoyl)glutathione derivatives are tight-binding inhibitors of glyoxalase I and slow substrates for glyoxalase II” (J Med Chem, 1994).

Experiments:
[1] = Vm value of the compound; format: ADME
[2] = tested on: NC(CCC(=O)NC(CSC(=O)N(O)c1ccccc1)C(=O)NCC(=O)O)C(=O)O; conditions: Bos taurus
Description: Michaelis-Menten constant was tested for inhibitory activity against bovine liver glyoxalase II

Vm [1]	Compound	Km [2]
4.6e-06	NC(CCC(=O)NC(CSC(=O)N(O)c1ccccc1)C(=O)NCC(=O)O)C(=O)O (centres undefined)	–
1.5e-05	NC(CCC(=O)NC(CSC(=O)N(O)c1ccc(Cl)cc1)C(=O)NCC(=O)O)C(=O)O (centres undefined)	–
2.1e-05	NC(CCC(=O)NC(CSC(=O)N(O)c1ccc(Br)cc1)C(=O)NCC(=O)O)C(=O)O (centres undefined)	–
–	Hydroxyacylglutathione hydrolase, mitochondrial (Homo sapiens) (from UniProt Q16775)	13 µM
